Assays:
[1] = target: T1, α-chymotrypsin (Bos taurus, UniProt P00766); assay: Chymotryptic digestion of apomyoglobin in H2 18O, 18O2-coding of peptides; type: biochemical, Bovine; conditions: apomyoglobin 51 nmol, 200 μg α-chymotrypsin, H2 18O pH 8.0, room temperature
T1 construct: purchased Sigma (St. Louis, Mo.); host or cells: bovine pancreas
Experimental: Chymotryptic Digestion of Apomyoglobin in H2^18O. An apomyglobin (51 nmol) suspension in H2^18O (24 mM Tris/HCl, pH 8.0) was incubated with 200 μg of α-chymotrypsin (bovine pancreas, Sigma) at room temperature. Aliquots were taken at different time intervals for MALDI-FT-ICR analysis.
MALDI-FT-ICR Mass Spectrometric Analysis. Reaction mixtures in H2^18O were diluted with 70:30 acetonitrile:water (0.1% TFA) to obtain a final peptide concentration of about 10 pmol/μl. A 0.6 μL aliquot of this solution was applied on the MALDI stainless steel probe followed by 0.6 μL of a solution of 2,5-dihydroxybezoic acid (500 mM) in 70:30 acetonitrile:water (0.1% TFA). The mixture was gently stirred during the crystallization. An FT-ICR instrument equipped with a 4.7 T actively shielded magnet (lonspec Co., Irvine, Calif.) was used for this study. An external MALDI ion source was differentially pumped. A pulsed (5 ns width) Nd:YAG laser (Minilite, Contimuum, Inc., Santa Clara, Calif.) was operated at 355 nm (triple of its fundamental frequency). The laser energy was attenuated by adjusting the angle between two Glan-laser prism polarizers (Karl-Lambrecht Co., Chicago, Ill.). Ions were injected into the ICR cylindrical cell by an RF-only quadrupole ion guide. A 4 ms nitrogen pulse was used to trap the ions and remove their excess of kinetic energy. After a 4 s delay, the ions were excited by a 35 Vb-p RF sweep during 4 ms (29-180 kHz). The image signal was amplified and digitized at an acquisition rate of 2 MHz (512 k data point) resulting in the recording of a 262.1 ms time domain, which gave a typical mass resolution of 10 000. […] In mass spectra, heights for the monoisotope peaks for peptides, the peaks with masses 2 Da higher, and the peaks with masses 4 Da higher were measured as peak intensities I0, I2, and I4, respectively.
Exchange Reactions Catalyzed by Chymotrypsin. Chymotryptic proteolysis of apomyoglobin in H2^18O was analyzed by MALDI-FT-ICR. […]

[2] = target: T2, trypsin (Sus scrofa, UniProt P00761); assay: Control experiment: non-Arg/Lys-terminated peptides incubated with trypsin in H2 18O; type: biochemical; conditions: mixture VEPIPY 710 μM and YGGFM 500 μM, 200 mM Tris, 2 μg trypsin, H2 18O pH 8.5, room temperature overnight
T2 construct: purchased Promega (Madison, Wis.)
T2 sequence (P00761 9-231): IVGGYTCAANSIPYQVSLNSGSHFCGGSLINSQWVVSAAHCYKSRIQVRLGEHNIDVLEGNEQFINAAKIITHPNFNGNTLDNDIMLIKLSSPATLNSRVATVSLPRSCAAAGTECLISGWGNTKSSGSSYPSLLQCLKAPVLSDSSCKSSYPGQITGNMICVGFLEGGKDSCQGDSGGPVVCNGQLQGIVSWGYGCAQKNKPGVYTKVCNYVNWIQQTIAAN
Experimental: For the process of ^18O2-coding of Arg- and Lys-terminated peptides through two exchange reactions, a sequential mechanism (FIG. 7) is supported by the kinetics shown in FIG. 5. Trypsin-catalyzed exchange reactions are substrate-specific; only peptides with Arg or Lys in the P1 position can undergo exchanges catalyzed by trypsin. As a control experiment, a mixture of VEPIPY (710 μM) and YGGFM (500 μM) was incubated with 200 mM Tris and 2 μg trypsin in H2^18O (pH 8.5) at room-temperature overnight. […] Thus, there was not significant catalysis from either the enzyme or the buffer.

[3] = target: T2, trypsin; assay: Kinetics of 16O-to-18O exchange of YGGFMK and YGGFMR catalyzed by trypsin (MALDI-FT-ICR-MS); type: biochemical
Experimental: Kinetics Measurement of ^16O-to-^18O Exchange of YGGFMK and YGGFMR Catalyzed by Trypsin. […] Aliquots of the reaction mixture were taken at different time intervals for the first 10% of reactant conversion. The reaction temperature was maintained at 26±1° C., and the ionic strength was controlled by NaCl (45 mM). The reaction volume was typically 20 μL. The change of the peak intensity for the peptide was monitored by MALDI-FT-ICR-MS. Substrate concentrations used in the kinetics studies ranged between 0.2 KM and 5 KM, and measurements were duplicated for each substrate concentration. At high concentrations (>10 mM) of YGGFMK, acetonitrile (10% v/v) was used to increase the substrate solubility in reaction buffer. A full course of ^16O-to-^18O exchange reaction of YGGFMR was also recorded using similar conditions.
MALDI-FT-ICR Mass Spectrometric Analysis. Reaction mixtures in H2^18O were diluted with 70:30 acetonitrile:water (0.1% TFA) to obtain a final peptide concentration of about 10 pmol/μl. A 0.6 μL aliquot of this solution was applied on the MALDI stainless steel probe followed by 0.6 μL of a solution of 2,5-dihydroxybezoic acid (500 mM) in 70:30 acetonitrile:water (0.1% TFA). The mixture was gently stirred during the crystallization. An FT-ICR instrument equipped with a 4.7 T actively shielded magnet (lonspec Co., Irvine, Calif.) was used for this study. An external MALDI ion source was differentially pumped. A pulsed (5 ns width) Nd:YAG laser (Minilite, Contimuum, Inc., Santa Clara, Calif.) was operated at 355 nm (triple of its fundamental frequency). The laser energy was attenuated by adjusting the angle between two Glan-laser prism polarizers (Karl-Lambrecht Co., Chicago, Ill.). Ions were injected into the ICR cylindrical cell by an RF-only quadrupole ion guide. A 4 ms nitrogen pulse was used to trap the ions and remove their excess of kinetic energy. After a 4 s delay, the ions were excited by a 35 Vb-p RF sweep during 4 ms (29-180 kHz). The image signal was amplified and digitized at an acquisition rate of 2 MHz (512 k data point) resulting in the recording of a 262.1 ms time domain, which gave a typical mass resolution of 10 000. The average of single time domain transients (more than 10 times) was Fourier transformed into the corresponding frequency domain (two zero fills and Blackman apodization).
MALDI-FT-ICR Mass Spectrometric Analysis of ^16O-to-^18O Exchange Reactions. […] The residual ^16O content in H2^18O (less than 5%) was not considered in formulation of the equation.
Kinetic Constants for ^16O-to-^18O Exchange of YGGFMK and YGGFMR Catalyzed by Trypsin. […] The time course for the first 10% of the reaction was limited to less than 30 min by adjusting the concentration of trypsin.
From the plots, values for kcat's, KM's, and kcat/KM's were calculated.

[4] = trypsin-catalyzed 16O-to-18O exchange, double reciprocal plot, pH 8.0, 26±1° C.

GADAQGAMTKALELF [CT9, Chymotryptic peptide of apomyoglobin]
time to complete 18O2-coding [1]: 20 h

YGGFM
exchange of oxygens [2]: No detectable exchange of oxygens

VEPIPY
exchange of oxygens [2]: No detectable exchange of oxygens

RNDIMKY [CT10, Chymotryptic peptide of apomyoglobin]
time to complete 18O2-coding [1]: 1.5 h

YGGFMK
Km [3, 4]: 4.4 ± 0.7 mM | kcat [3, 4]: 2800 ± 300 min⁻¹ | Km ([3]; trypsin-catalyzed exchange): 4.4 mM | kcat ([3]; trypsin-catalyzed exchange): 2800+−300 per min

YGGFMR
Km [3, 4]: 1.3 ± 0.3 mM | kcat [3, 4]: 3500 ± 500 min⁻¹ | Km ([3]; trypsin-catalyzed exchange): 1.3 mM | kcat ([3]; trypsin-catalyzed exchange): 3500+−500 per min

TGHPETLEKF [CT4, Chymotryptic peptide of apomyoglobin]
time to complete 18O2-coding [1]: 3.5 h

Reference: patent US20050032149A1, “Enzyme catalyzed isotope labeling” (priority 2003, published 2005)
